Test results taken from patent US11149054B2, “Oxysterols and methods of use thereof” (Sage Therapeutics, Inc., priority 2016, dated 2021).
Like-named read-outs stand apart in the source and are kept apart here.

Legend:
[1] = target: GluN2B glutamate receptors (Homo sapiens (Human), UniProt Q05586+Q13224); assay: Whole-cell patch clamp of mammalian cells (Ionworks Barracuda), positive allosteric modulation, GluN2B; format: cell-based; details: for Emax: read-out: Avg Emax 2B (%)
Procedure: (§1) The measurements were performed using Ion Works Barracuda platform following this procedure:
(§2) Electrophysiological Procedures:
(§3) • a) Intracellular solution (mM): 50 mM CsCl, 90 mM CsF, 2 mM MgCl2, 5 mM EGTA, 10 mM HEPES. Adjust to pH 7.2 with CsOH. • b) Extracellular solution, HB-PS (composition in mM): NaCl, 137; KCl, 1.0; CaCl2), 5; HEPES, 10; Glucose, 10; pH adjusted to 7.4 with NaOH (refrigerated until use). • c) Holding potential: −70 mV, potential during agonist/PAM application: −40 mV. Recording Procedure: • a) Extracellular buffer will be loaded into the PPC plate wells (11 μL per well). Cell suspension will be pipetted into the wells (9 μL per well) of the PPC planar electrode. • b) Whole-cell recording configuration will be established via patch perforation with membrane currents recorded by on-board patch clamp amplifiers. • c) Two recordings (scans) will be performed. First, during pre-application of test article alone (duration of pre-application—[…]) and second, during test articles and agonist (EC20 L-glutamate and 30 μM glycine) co-application to detect positive modulatory effects of the test article. […] Potentiating Effect of Positive Allosteric Modulators (PAM) on the Channel
(§4) PAM concentration-response data will be fitted to an equation of the form: % Activation=% L-glutamate EC20+{(% MAX−% L-glutamate EC20)/[1+([Test]/EC50)^N]}, where [Test] will be the concentration of PAM (test article), EC50 will be the concentration of PAM producing half-maximal activation, N will be the Hill coefficient, % L-glutamate EC20 will be the percentage of the current Elicited with L-glutamate EC20, % MAX is the percentage of the current activated with the highest dose of PAM co-admitted with L-glutamate EC20 and % Activation will be the percentage of the current elicited with L-glutamate EC10-30 at each PAM concentration. The maximal amplitude of the evoked currents are measured and defined as Peak Current Amplitude (PCA).

[2] = target: GlunN1/GluN2A glutamate receptors (Homo sapiens (Human), UniProt Q05586+Q12879); assay: Whole-cell patch clamp of mammalian cells (Ionworks Barracuda), positive allosteric modulation, GluN1/GluN2A; format: cell-based
GlunN1/GluN2A glutamate receptors, sequence (Q12879 23-1464, other chains not shown): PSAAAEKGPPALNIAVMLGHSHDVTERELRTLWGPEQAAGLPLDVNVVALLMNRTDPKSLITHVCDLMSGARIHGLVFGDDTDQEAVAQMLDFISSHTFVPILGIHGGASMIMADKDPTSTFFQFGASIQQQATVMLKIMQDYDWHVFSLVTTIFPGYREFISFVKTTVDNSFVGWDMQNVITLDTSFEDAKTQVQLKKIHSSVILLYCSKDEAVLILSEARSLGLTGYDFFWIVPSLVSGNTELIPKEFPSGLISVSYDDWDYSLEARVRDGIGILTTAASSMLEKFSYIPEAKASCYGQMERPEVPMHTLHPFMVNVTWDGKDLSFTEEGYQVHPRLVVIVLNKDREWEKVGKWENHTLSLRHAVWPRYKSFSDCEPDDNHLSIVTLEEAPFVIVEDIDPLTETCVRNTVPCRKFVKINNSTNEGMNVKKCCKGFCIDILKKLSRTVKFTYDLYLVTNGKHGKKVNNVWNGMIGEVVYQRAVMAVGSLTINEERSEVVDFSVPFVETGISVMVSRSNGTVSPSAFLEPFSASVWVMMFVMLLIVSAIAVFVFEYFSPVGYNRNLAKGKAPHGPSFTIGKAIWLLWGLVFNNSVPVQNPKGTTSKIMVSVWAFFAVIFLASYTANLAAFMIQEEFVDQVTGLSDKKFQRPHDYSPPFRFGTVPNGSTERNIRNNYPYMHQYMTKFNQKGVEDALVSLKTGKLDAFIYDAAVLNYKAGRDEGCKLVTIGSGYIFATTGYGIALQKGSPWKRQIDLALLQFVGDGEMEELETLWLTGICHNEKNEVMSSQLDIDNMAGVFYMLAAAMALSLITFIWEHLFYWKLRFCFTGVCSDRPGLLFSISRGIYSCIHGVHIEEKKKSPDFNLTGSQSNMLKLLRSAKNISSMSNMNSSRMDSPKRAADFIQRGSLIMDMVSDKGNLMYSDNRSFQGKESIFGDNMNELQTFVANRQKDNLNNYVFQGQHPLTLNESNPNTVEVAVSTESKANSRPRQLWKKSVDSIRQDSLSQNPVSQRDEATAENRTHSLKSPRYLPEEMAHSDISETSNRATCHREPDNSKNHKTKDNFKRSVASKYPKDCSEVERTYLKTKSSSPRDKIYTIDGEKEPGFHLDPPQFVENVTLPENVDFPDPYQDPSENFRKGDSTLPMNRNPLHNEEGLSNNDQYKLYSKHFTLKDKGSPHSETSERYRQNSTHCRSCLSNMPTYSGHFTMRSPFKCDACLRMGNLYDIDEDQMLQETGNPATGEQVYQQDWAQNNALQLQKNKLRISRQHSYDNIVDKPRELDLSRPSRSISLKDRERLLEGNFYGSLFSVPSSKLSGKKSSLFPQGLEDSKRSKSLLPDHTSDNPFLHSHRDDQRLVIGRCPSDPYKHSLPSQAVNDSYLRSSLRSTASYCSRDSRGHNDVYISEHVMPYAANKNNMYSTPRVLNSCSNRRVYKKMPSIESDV
Procedure: as §1, §2, §3, §4

[3] = % potentiation of current elicited with EC20 L-glutamate and 30 μM glycine
[4] = co-application with EC20 L-glutamate and 30 μM glycine, 8-point concentration-response, read-out: Avg EC50 2B
[5] = HEK293 cells, % potentiation of current elicited with EC20 L-glutamate and 30 μM glycine, read-out: Avg Emax 2A (%)
[6] = HEK293 cells, co-application with EC20 L-glutamate and 30 μM glycine, 8-point concentration-response, read-out: Avg EC50 2A
[7] = HEK293, read-out: Avg Emax 2A (%)

GluN2B glutamate receptors, sequence (Q13224 27-1484, other chains not shown): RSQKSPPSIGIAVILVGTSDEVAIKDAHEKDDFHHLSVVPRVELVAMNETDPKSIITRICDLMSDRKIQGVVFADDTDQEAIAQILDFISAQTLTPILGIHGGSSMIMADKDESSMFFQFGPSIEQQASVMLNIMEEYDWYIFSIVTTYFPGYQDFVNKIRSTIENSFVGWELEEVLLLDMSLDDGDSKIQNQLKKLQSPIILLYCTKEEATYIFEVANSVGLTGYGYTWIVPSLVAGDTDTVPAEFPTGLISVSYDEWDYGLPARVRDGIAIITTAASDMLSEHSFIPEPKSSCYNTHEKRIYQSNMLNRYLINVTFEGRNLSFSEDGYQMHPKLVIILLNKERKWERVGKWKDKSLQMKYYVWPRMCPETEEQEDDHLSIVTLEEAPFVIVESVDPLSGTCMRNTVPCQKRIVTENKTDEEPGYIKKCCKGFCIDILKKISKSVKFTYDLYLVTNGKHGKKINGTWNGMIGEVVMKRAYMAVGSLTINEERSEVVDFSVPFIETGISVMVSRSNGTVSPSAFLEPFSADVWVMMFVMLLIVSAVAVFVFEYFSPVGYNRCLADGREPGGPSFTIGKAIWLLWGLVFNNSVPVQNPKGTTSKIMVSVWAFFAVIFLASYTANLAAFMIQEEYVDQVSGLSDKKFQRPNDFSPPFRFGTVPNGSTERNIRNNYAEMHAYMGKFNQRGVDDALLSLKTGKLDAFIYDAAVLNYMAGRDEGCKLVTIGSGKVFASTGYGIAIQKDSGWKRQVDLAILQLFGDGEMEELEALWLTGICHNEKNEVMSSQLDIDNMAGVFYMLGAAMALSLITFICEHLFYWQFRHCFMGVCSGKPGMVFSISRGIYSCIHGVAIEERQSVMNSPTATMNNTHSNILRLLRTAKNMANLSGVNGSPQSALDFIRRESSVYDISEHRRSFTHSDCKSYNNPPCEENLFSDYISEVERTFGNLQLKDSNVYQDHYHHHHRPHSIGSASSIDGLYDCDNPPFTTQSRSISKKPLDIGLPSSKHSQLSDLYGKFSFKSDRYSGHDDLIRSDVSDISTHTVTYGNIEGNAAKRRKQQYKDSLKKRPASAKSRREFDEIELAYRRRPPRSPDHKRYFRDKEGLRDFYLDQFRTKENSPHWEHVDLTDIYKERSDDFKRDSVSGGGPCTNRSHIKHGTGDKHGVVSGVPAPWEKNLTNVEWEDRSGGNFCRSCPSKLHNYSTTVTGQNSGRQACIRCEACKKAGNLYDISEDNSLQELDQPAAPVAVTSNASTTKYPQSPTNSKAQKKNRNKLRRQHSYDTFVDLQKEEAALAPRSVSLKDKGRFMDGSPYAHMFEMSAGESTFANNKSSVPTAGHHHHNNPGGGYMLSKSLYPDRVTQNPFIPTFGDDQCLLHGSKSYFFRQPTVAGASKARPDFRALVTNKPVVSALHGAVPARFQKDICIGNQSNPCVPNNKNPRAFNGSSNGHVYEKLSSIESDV

SMILES	Emax [1, 3] [%]	EC50 [1, 4] [nM]	Emax [2, 5] [%]	EC50 [2, 6] [nM]	EC50 [1] [nM]	EC50 [2] [nM]	Emax [1] [%]	Emax [2, 7] [%]
CC[C@]1(O)CC[C@H]2C(=CC[C@@H]3[C@@H]2CC[C@]2(C)[C@@H]([C@H](C)CCCC4(O)CCOCC4)CC[C@@H]32)C1 [Compound 10216]	121	446	79.3	1200	–	–	–	–
CC(C)[C@@H](O)CC[C@@H](C)[C@H]1CC[C@H]2[C@@H]3CC[C@H]4C[C@@](C)(O)CC[C@@H]4[C@H]3CC[C@]12C [Compound 1A75]	308	–	457	–	–	–	–	–
C[C@H](CCC[C@H](O)C(F)(F)F)[C@H]1CC[C@H]2[C@@H]3CC[C@H]4C[C@](O)(C(F)(F)F)CC[C@]4(C)[C@H]3CC[C@]12C [Compound 11934]	70	–	113	–	–	–	–	–
C[C@H](CCC1(O)CCC2(CC1)COC2)[C@H]1CC[C@H]2[C@@H]3CC[C@H]4C[C@](O)(C(F)(F)F)CC[C@]4(C)[C@H]3CC[C@]12C [Compound 5009]	14.5	–	27.5	–	> 10000	> 10000	–	–
C[C@H](CCC1(O)CCC(C)(C)CC1)[C@H]1CC[C@H]2[C@@H]3CC[C@@H]4C[C@](O)(C(F)(F)F)CC[C@]4(C)[C@H]3C(=O)C[C@]12C [Compound 5294]	13.9	–	32.4	–	–	–	–	–
C[C@H](CCC[C@@H](O)C(C)(C)C)[C@H]1CC[C@H]2[C@@H]3CC[C@H]4C[C@](O)(C(F)(F)F)CC[C@]4(C)[C@H]3CC[C@]12C [Compound 12055]	185	–	114	–	–	–	–	–
C[C@H](CCC(O)Cc1ccccc1)[C@H]1CC[C@H]2[C@@H]3CC=C4C[C@@](C)(O)CC[C@]4(C)[C@H]3CC[C@]12C (stereo partly drawn) [Compound 660]	281	–	195	–	–	–	–	–
CC[C@]1(O)CC[C@H]2C(=CC[C@@H]3[C@@H]2CC[C@]2(C)[C@@H]([C@H](C)CC[C@@H](O)C(C)C)CC[C@@H]32)C1 [Compound 8463]	–	–	–	–	85.1	102	–	–
C[C@H](O)CC[C@@H](C)[C@H]1CC[C@H]2[C@@H]3CC=C4C[C@](O)(C(F)(F)F)CC[C@]4(C)[C@H]3CC[C@]12C [Compound 2602]	367	–	163	–	279	289	–	–
C[C@H](CC[C@](C)(O)c1ccccc1)[C@H]1CC[C@H]2[C@@H]3CC=C4C[C@@](C)(O)CC[C@]4(C)[C@H]3CC[C@]12C [Compound 7468]	–	–	–	–	–	–	317	273
CC[C@]1(O)CC[C@H]2[C@@H](CC[C@@H]3[C@@H]2CC[C@]2(C)[C@@H]([C@H](C)CCCC4(O)CCC(F)(F)CC4)CC[C@@H]32)C1 [Compound 9813]	99.9	268	68.7	469	–	–	–	–
CC[C@]1(O)CC[C@@]2(C)[C@@H](CC[C@@H]3[C@@H]2CC[C@]2(C)[C@@H]([C@H](C)CC[C@H](O)c4ccccn4)CC[C@@H]32)C1 [Compound 7032]	63.8	–	28.3	–	874	–	–	–
CC[C@]1(O)CC[C@H]2C(=CC[C@@H]3[C@@H]2CC[C@]2(C)[C@@H]([C@H](C)CCCC4(O)CCC(F)(F)CC4)CC[C@@H]32)C1 [Compound 9810]	91.6	151	87.1	124	–	–	–	–
C[C@H](CC[C@@H](O)C(C)(C)C)[C@H]1CC[C@H]2[C@@H]3CC=C4C[C@](O)(C(F)(F)F)CC[C@]4(C)[C@H]3CC[C@]12C [Compound 3382]	–	–	–	–	126	67.6	–	–
C[C@H](CC[C@@H](C)O)[C@H]1CC[C@H]2[C@@H]3CC=C4C[C@](O)(C(F)(F)F)CC[C@]4(C)[C@H]3CC[C@]12C [Compound 3266]	135	377	82.6	147	–	–	–	–
COC[C@H]1CC[C@@](O)(CC[C@@H](C)[C@H]2CC[C@H]3[C@@H]4CC[C@H]5C[C@](O)(C(F)(F)F)CC[C@]5(C)[C@H]4CC[C@]23C)CC1 [Compound 4656]	122	–	134	–	2160	1600	–	–

SMILES	Emax [1, 3] [%]	EC50 [1, 4] [nM]	Emax [2, 5] [%]	EC50 [2, 6] [nM]	EC50 [1] [nM]	EC50 [2] [nM]	Emax [1] [%]	Emax [2, 7] [%]
CC[C@]1(O)CC[C@@]2(C)C(=CC[C@H]3[C@@H]4CC[C@H]([C@H](C)CC[C@@H](O)c5ccccn5)[C@@]4(C)CC[C@@H]32)C1 [Compound 6348]	133	–	79.7	–	663	260	–	–
CC[C@]1(O)CC[C@H]2C(=CC[C@@H]3[C@@H]2CC[C@]2(C)[C@@H]([C@H](C)CC[C@@]4(O)CCOC4)CC[C@@H]32)C1 (single isomer, unassigned) [Compound 8602]	–	–	–	–	434	1050	–	–
CC[C@]1(O)CC[C@H]2[C@@H](CC[C@@H]3[C@@H]2CC[C@]2(C)[C@@H]([C@H](C)CCC(C)(C)O)CC[C@@H]32)C1 [Compound 679]	172	280	105	5110	–	–	–	–
C[C@H](CC[C@](C)(O)C(F)(F)F)[C@H]1CC[C@H]2[C@@H]3CC=C4C[C@@](C)(O)CC[C@@H]4[C@H]3CC[C@]12C [Compound 9062]	–	–	–	–	–	–	52.2	66.5
CC[C@H](O)CCC[C@@H](C)[C@H]1CC[C@H]2[C@@H]3CC=C4C[C@](O)(CC)CC[C@@H]4[C@H]3CC[C@]12C [Compound 10949]	–	–	–	–	–	–	147	97.4
C[C@H](CCC(O)C1CCOCC1)[C@H]1CC[C@H]2[C@@H]3CC[C@H]4C[C@](O)(C(F)(F)F)CC[C@]4(C)[C@H]3CC[C@]12C (stereo partly drawn) [Compound 9]	271	–	181	–	234	317	–	–
CCC(O)CCC[C@@H](C)[C@H]1CC[C@H]2[C@@H]3CC=C4C[C@](O)(CC)CC[C@@H]4[C@H]3CC[C@]12C (stereo partly drawn) [Compound 10673]	–	–	–	–	–	–	214	216
CC[C@]1(O)CC[C@@]2(C)C(=CC[C@H]3[C@@H]4CC[C@H]([C@H](C)CCC(O)Cc5ccccc5)[C@@]4(C)CC[C@@H]32)C1 (stereo partly drawn) [Compound 6010]	184	–	239	–	1570	1100	–	–
CC[C@@H](O)CC[C@@H](C)[C@H]1CC[C@H]2[C@@H]3CC=C4C[C@](O)(CC)CC[C@@H]4[C@H]3CC[C@]12C [Compound 8584]	363	–	284	–	244	332	–	–
CC[C@]1(O)CC[C@@]2(C)C(=CC[C@H]3[C@@H]4CC[C@H]([C@H](C)CC[C@H](O)Cc5ccccc5)[C@@]4(C)CC[C@@H]32)C1 [Compound 6051]	292	–	293	–	1260	500	–	–
C[C@H](CC[C@@H](O)C1CCOCC1)[C@H]1CC[C@H]2[C@@H]3CC[C@H]4C[C@](O)(C(F)(F)F)CC[C@]4(C)[C@H]3CC[C@]12C [Compound 2081]	215	–	126	–	175	129	–	–
C[C@H](CCC1(O)CCCCCC1)[C@H]1CC[C@H]2[C@@H]3CC[C@H]4C[C@](O)(C(F)(F)F)CC[C@]4(C)[C@H]3CC[C@]12C [Compound 3983]	–	–	–	–	248	88.1	–	–
CC[C@]1(O)CC[C@H]2C(=CC[C@@H]3[C@@H]2CC[C@]2(C)[C@@H]([C@H](C)CCC[C@@H](O)C(C)C)CC[C@@H]32)C1 [Compound 10114]	179	–	146	–	–	–	–	–
CC[C@]1(O)CC[C@H]2C(=CC[C@@H]3[C@@H]2CC[C@]2(C)[C@@H]([C@H](C)CCC[C@H](O)C(C)(C)C)CC[C@@H]32)C1 [Compound 10043]	211	–	146	–	1070	897	–	–
C[C@H](CCCC1(O)CC1)[C@H]1CC[C@H]2[C@@H]3CC[C@H]4C[C@](O)(C(F)(F)F)CC[C@]4(C)[C@H]3CC[C@]12C [Compound 4115]	–	–	–	–	114	91.9	–	–
